Experiments:
BCRP = BCRP (Homo sapiens (Human), UniProt Q9UNQ0); experiment: in vitro; type: in vitro ADME; conditions: for efflux transporter substrate assessment: Caco-2; for Efflux Ratio / Mean Papp (10^−6 cm/s) B to A / Mean Recovery (%) A to B / Mean Recovery (%) B to A / Papp B→A at 2 h, 2 μM / recovery at 2 h, 2 μM: human; for Efflux Ratio / Mean Papp (10^−6 cm/s) B to A / Mean Recovery (%) A to B / Mean Recovery (%) B to A: Caco-2, 2 h, 2 μM, pH 7.4; for Papp B→A at 2 h, 2 μM: Caco-2, pH 7.4, Mean Papp (10^−6 cm/s) B to A
Procedure: Caco-2 cells purchased from ATCC were seeded onto […] (PET) in 96-well BD Insert plates at 1×10^5 cells/cm^2, and refreshed medium every 4-5 days until to the 21st to 28th day for confluent cell monolayer formation. The transport buffer in the study was HBSS with 10 mM HEPES at pH 7.40±0.05. Compounds were tested at 2 μM in the presence or absence of 30 μM novobiocin bi-directionally in duplicate. E3S was tested at 5 μM in the presence or absence of 30 μM novobiocin bi-directionally in duplicate, while nadolol and metoprolol were tested at 2 μM in the absence of novobiocin in A to B direction in duplicate. Final DMSO concentration was adjusted to less than 1%. The plate was incubated for 2 hours in CO2 incubator at 37+1° C., with 5% CO2 at saturated humidity without shaking. All samples were mixed with acetonitrile containing internal standard and were centrifuged at 4000 rpm for 10 min. Subsequently, 100 μL supernatant solution was diluted with 100 μL distilled water for LC/MS/MS analysis. Concentrations of test and control compounds in starting solution, donor solution, and receiver solution were quantified by LC/MS/MS, using peak area ratio of analyte/internal standard.

MDCK cells = experiment: Effects on tight junction (TJ) architecture, ZO-1 staining; type: cell-based; conditions: 10 μM, low calcium medium (LCM)
Procedure: MDCK cells were grown to confluence on Transwell inserts in standard growth media. The inserts were then washed and incubated in low calcium medium (LCM) with vehicle or compound (10 μM) and fixed with paraformaldehyde. Fixed cells were stained for tight junction (TJ) component proteins using commercially available antibodies and visualized on a confocal microscope (Model DM6, Leica Microsystems). As shown by zona occludens-1 (ZO-1) staining, confluent epithelial cell monolayers in standard growth media display well-organized TJs that allow the cells to form a tight seal with their neighbors, while LCM induces autonomous internalization of TJ proteins into the cytoplasm and therefore compromises the barrier function of the epithelial monolayer.

[1] = tested on: Acetyl CoA Carboxylase (ACC) Phosphorylation in Mouse Muscle; experiment: Level of ACC phosphorylation in mouse muscle; type: in vivo, C57BL/6J mice
Procedure: Systemic AMPK target engagement in vivo can be assessed by measuring the site-specific phosphorylation of a direct AMPK substrate, acetyl-coenzyme A carboxylase (ACC), in a well perfused tissue such as muscle.
Compounds were formulated in vehicle (0.25% methyl cellulose, 5% Tween 80, 0.02% sodium dodecyl sulfate (SDS) in Hanks' Buffered Salt Solution with Ca^2+ and Mg^2+). Male C57BL/6J mice were administered vehicle or compound once daily for 5 days. On the final day of dosing (day 1 for acute assessment, day 5 for sub-chronic assessment), mice were euthanized by cervical dislocation five hours post dose and samples of skeletal muscle (gastrocnemius) were removed and snap frozen in liquid nitrogen.
Frozen muscle tissues were homogenized. Homogenates were analyzed for protein concentration and equal amounts of protein were assayed for total and phosphorylated ACC (p-ACC) levels using Meso Scale Discovery's Multi-array assay kit. The ratio of p-ACC/total ACC was determined for each sample.

[2] = Concentrations in colon post oral dosing; type: in vivo, mouse; conditions: PO 30 mg/kg
Procedure: A time course for colonic exposure to Compound A1 was determined in mouse following a single bolus oral (PO) gavage of 30 mg/kg of A1. Whole colon from cecum to rectum was collected at 2, 4, 6, and 8 hours post-dose and snap frozen. Tissue was homogenized and the concentration of A1 was measured.

[3] = Caco-2, pH 7.4, Mean Recovery (%) A to B
[4] = Caco-2, pH 7.4, Mean Recovery (%) B to A

Chain of BCRP (Q9UNQ0 whole entry): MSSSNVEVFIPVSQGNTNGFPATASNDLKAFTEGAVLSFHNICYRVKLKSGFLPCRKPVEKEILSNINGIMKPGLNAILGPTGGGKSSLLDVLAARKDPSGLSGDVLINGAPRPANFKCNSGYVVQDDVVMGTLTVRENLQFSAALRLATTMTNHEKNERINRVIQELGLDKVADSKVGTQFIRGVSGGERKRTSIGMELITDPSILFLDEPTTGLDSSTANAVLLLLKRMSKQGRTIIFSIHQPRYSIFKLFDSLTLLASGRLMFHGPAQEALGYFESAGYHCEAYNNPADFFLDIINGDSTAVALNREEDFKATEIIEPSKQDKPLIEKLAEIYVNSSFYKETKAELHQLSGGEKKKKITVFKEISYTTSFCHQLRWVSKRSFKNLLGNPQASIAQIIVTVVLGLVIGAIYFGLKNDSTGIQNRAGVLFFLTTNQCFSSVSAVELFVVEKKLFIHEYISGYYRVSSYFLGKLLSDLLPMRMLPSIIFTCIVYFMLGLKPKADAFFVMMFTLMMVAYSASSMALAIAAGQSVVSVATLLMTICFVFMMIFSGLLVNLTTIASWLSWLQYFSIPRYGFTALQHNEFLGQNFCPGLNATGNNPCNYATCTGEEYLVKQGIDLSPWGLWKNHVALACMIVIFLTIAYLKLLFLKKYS

| Efflux Ratio (BCRP) | Mean Papp (10^−6 cm/s) B to A (BCRP) | Mean Recovery (%) A to B (BCRP) [%] | Mean Recovery (%) B to A (BCRP) [%] | Papp B→A at 2 h, 2 μM (BCRP) [×10⁻⁶ cm/s] | recovery at 2 h, 2 μM (BCRP; [3]) [%] | recovery at 2 h, 2 μM (BCRP; [4]) [%] | ratio of pACC/total ACC compared with vehicle control mice ([1]; 30 mg/kg, one-way ANOVA vs vehicle (Dunnett's post-test)) | colonic exposure profile ([2]; 2 to 8 hours post-dose) [µM] | concentration in colon ([2]; 2 h post dosing) [µM] | concentration in colon ([2]; 4 h post dosing) [µM] | concentration in colon ([2]; 6 h post dosing) [µM] | concentration in colon ([2]; 8 h post dosing) [µM] | Structure (SMILES) | efflux transporter substrate assessment (BCRP) | TJ architecture by zona occludens-1 (ZO-1) staining (MDCK cells) | % p-ACC/ACC ratio change vs. Vehicle, Sub-chronic (5 days) ([1]; 30 mg/kg once daily for 5 days, five hours post dose, gastrocnemius) [%] | % p-ACC/ACC ratio change vs. Vehicle, Acute (5 hr) ([1]; 30 mg/kg, day 1, five hours post dose, gastrocnemius) [%] |
| --- | --- | --- | --- | --- | --- | --- | --- | --- | --- | --- | --- | --- | --- | --- | --- | --- | --- |
| 44.89 | 6.98 10^−6 cm/s | 69.40 | 82.75 | 12.7 | < 68.8 | 79.5 | not significantly changed | – | – | – | – | – | O=C(O)CSc1nc2nc(-c3ccc(-c4ccccc4O)cc3)c(Cl)cc2[nH]1 [Compound 1, 2-((6-chloro-5-(2′-hydroxy-[1,1′-biphenyl]-4-yl)-1H-imidazo[4,5-b]pyridin-2-yl)thio)acetic Acid] | likely substrates of intestinal efflux transporters | prevented the loss of TJ architecture | 29.6 | 6.6 |
| 55.54 | 9.16 10^−6 cm/s | 61.16 | 78.94 | 17.1 | < 65.6 | 77.4 | – | 122 to 255 | 254 | 122 | 128 | 205 | O=C(O)CSc1nc2cc(-c3ccc(-c4ccccc4O)cc3)c(Cl)cc2[nH]1 [Compound A1] | likely substrates of intestinal efflux transporters | prevented the loss of TJ architecture | – | – |

Reference: patent US11279702B2, “AMPK activators” (Kallyope, Inc., priority 2020, dated 2022)
